Experimental data reported in patent US20240196932A1, “NOVEL USE” (DSM IP Assets B.V., priority 2021, published 2024).

Tested on: rumen liquor
Experiment: In vitro test for methane production (modified Hohenheim Forage value Test, HFT)
Assay type: cell-based
Settings: for Total methane change [% vs. control]: TMR feed, 8 hours at 39° C, average of four to eight experiments
Experimental: In vitro test for methane production: A modified version of the “Hohenheim Forage value Test (HFT)” was used for testing the effect of specific compounds on the rumen functions mimicked by this in-vitro system.
Principle: Feed is gadded into a syringe with a composition of rumen liquor and an appropriate mixture of buffers. The solution is incubated at 39° C. After 8 hours the quantity (and composition) of gas phase produced is measured and put into a formula for conversion.
Sample weighing: The feed stuff (i.e. TMR (44% concentrate, 6% hay, 37% maize silage and 13% grass silage) is sieved to 1 mm and weighed exactly into 64 syringes. 4 of these syringes are the substrate controls, which display the gas production without the effect of the tested compounds. The remaining syringes contain the test substances, by groups of 4 syringes.
The components are mixed in a Woulff bottle in following order: • 711 ml water • 0.18 ml trace element solution • 355.5 ml buffer solution • 355.5 ml mass element solution • The completed solution is warmed up to 39° C.followed by the addition of 1.83 ml sodium salt solution and the addition of reduction solution at 36° C. The rumen liquor is added, when the indicator turns colourless.
Extraction of the rumen liquor: 750 ml of rumen liquor are added to approximately 1,400 ml of medium solution under continued agitation and CO2-gassing.
Filling the syringes, incubation and determining gas volumes and VFA values: The diluted rumen fluid (24 ml) is added to the glass syringe. The syringes are then incubated for 8 hours at 39° C.under gentle agitation. After 8 hours, the volume of gas produced is measured, and the percentage of methane in the gas phase is determined by gas chromatography.
The food fermented was artificial TMR (44% concentrate, 6% hay, 37% maize silage and 13% grass silage). Gossypol was obtained from Sigma-Aldrich (G8761), and used at a concentration as outlined in table 1. 3-Nitrooxy-propanol (3-NOP) was used at the concentration as outlined in table 1.

Question: Which “Total methane change [% vs. control]” value (gossypol 5 μM, listed as prints 2 g/animal/day) does the source give for Cc1cc2c(C(C)C)c(O)c(O)c(C=O)c2c(O)c1-c1c(C)cc2c(C(C)C)c(O)c(O)c(C=O)c2c1O (racemic) [gossypol, Gossypol] here?
Answer: −1 % vs. control

Question: And the “Total methane change [% vs. control]” value (gossypol 10 μM, listed as prints 4.3 g/animal/day)?
Answer: −11 % vs. control

Question: What about the “Total methane change [% vs. control]” value (gossypol 20 μM, listed as prints 8.6 g/animal/day) of the same compound?
Answer: −15 % vs. control

Question: What about the “Total methane change [% vs. control]” value (gossypol 100 μM, listed as prints 17.3 g/animal/day) of the same compound?
Answer: −69 % vs. control

Question: What about the methane reduction (gossypol concentrations of at least 7.5 g gossypol/animal/day) of the same compound?
Answer: Clear effects
